According to patent US20120225123A1, “Use of Synergistic Combinations of an Avermectin and an Antineoplastic Compounds for the Treatment of Hematological Malignancies” (UNIVERSITY HEALTH NETWORK, priority 2009, published 2012):
Read-outs that look alike come from different tables or passages of the source.

Assays:
[1] = tested on: DU145 cells; assay: Intracellular chloride (SPQ) and cell size (forward light scatter), DU145; type: cell-based, human; conditions: 10 μM IVM, 2 hours
Procedure: (§1) Intracellular chloride concentration was measured using a fluorescent indicator for chloride, SPQ as previously described.^16 Upon binding halide ions like chloride, SPQ is quenched resulting in a decrease in fluorescence without a shift in wavelength. […] After 15 minutes of incubation with SPQ, cells were diluted 15:1 in HBSS and centrifuged. The supernatant was removed, cells were resuspended in 200 μl of fresh HBSS and incubated for 15 minutes in 37° C. to allow recovery from the hypotonic shock. Cells were then stained with propidium iodide and SPQ fluorescence in the PI negative cells was determined using an LSR-II flow cytometer (Beckton Dickonson, San Jose, Calif.) (excitation 351 nm, emission 485 nm). In parallel, changes in cell size were determined by measuring forward light scatter by flow cytometry. Results were analyzed with FlowJo version 8.8 (TreeStar, Ashland, Oreg.).

[2] = tested on: DU145 prostate cancer cells; assay: Cell death by Annexin V and PI staining in DU145 cells; type: cell-based, human; conditions: 24 hours
Procedure: (§2) Cell growth and viability was assessed by the MTS assay (Promega, Madison, Wis.) according to the manufacturer's instructions and as previously described.^12 Cell death was measured by Annexin V-fluoroscein isothiocyanate (FITC) and Propidium Iodide (PI; Biovision Research Products, Mountain View, Calif.) staining and flow cytometry according to the manufacturer's instructions and as previously described.^13 To identify CD34+ cells, a normal PBSC sample was co-stained with PE-anti-CD34+ (Beckman Coulter, Marseille France), and APC-anti-CD45 (Becton Dickenson, San Jose Calif.).

[3] = tested on: primary normal hematopoietic cells (PBSC); assay: Cell viability by Annexin V and PI staining, normal hematopoietic cells; type: cell-based, human; conditions: 48 hours, concentrations up to 20 μM
Procedure: Primary human acute myeloid leukemia (AML) samples were isolated from fresh bone marrow and peripheral blood samples of consenting patients. Similarly, primary normal hematopoietic cells were obtained from healthy consenting volunteers donating peripheral blood mononuclear cells
(PBSCs) for stem cell transplantation. The mononuclear cells were isolated from the samples by Ficoll density centrifugation. Primary cells were cultured at 37° C. in IMDM supplemented with 20% FCS and appropriate antibiotics.
as §2
Given the cytotoxicity of IVM toward leukemia cell lines, its cytotoxicity was compared to primary normal hematopoietic cells and acute myeloid leukemia (AML) patient samples (n=4 intermediate risk cytogenetics, n=1 good risk cytogenetics, and n=1 unknown cytogenetics). […]

[4] = tested on: panel of 5 leukemia cell lines; assay: Cell growth and viability by MTS assay in a panel of leukemia cell lines; type: cell-based; conditions: 72 hours, read-out: EC50, decreased viability
Procedure: as §2
Having identified IVM in the chemical screens, the effects of IVM on cell growth and viability was tested in a panel of leukemia, cell lines. The effects of ivermectin on cell growth and viability in a panel of 5 leukemia cell lines were tested. Cells were treated with increasing concentrations of ivermectin and 72 hours after incubation, cell growth and viability were assessed by the MTS assay. Ivermectin decreased the viability of the tested leukemia cell lines with an EC50 of approximately 5 μM (FIG. 1B). The loss of viability was detected at 24 hours after treatment and increased in a time dependent manner. Cell death and apoptosis were confirmed by Annexin V and PI staining (FIG. 1C). […] (FIG. 1F).

[5] = tested on: OCI-AML2 cells; assay: Intracellular chloride (SPQ) and cell size (forward light scatter), OCI-AML2; type: cell-based, human
Procedure: as §1

[6] = tested on: STAT1 expression in DU145 and PPC-1 cells; assay: Gene expression by Q-RT-PCR, DU145 and PPC-1; type: cell-based, human
Procedure: Gene expression changes were evaluated in OCI AML2, 0937, HL60, DU145 and PPC-1 cells by real-time Q-RT-PCRas described previously^15, 47. The expression level of STAT1A, STAT1B, TRIM22, OAS1 and IFIT3 before and after incubation of leukemia cells with ivermectin was evaluated.

[7] = tested on: OCI-AML2 subcutaneous xenografts; assay: OCI-AML2 xenograft, intraperitoneal ivermectin: Tunel staining and STAT1 Q-RT-PCR; type: in vivo, mouse
Procedure: In order to measure gene expression changes in vivo, OCI-AML2 cells (2.5×10^5) were injected subcutaneously into the flanks of sub-lethally irradiated NOD/SCID mice. Once tumors were established, mice were treated with ivermectin (7 mg/kg) or vehicle control intraperitoneally for 5 days. After treatment, mice were sacrificed, and tumors harvested. mRNA was extracted and changes in STAT expression were measured by quantitative RT-PCR (QRT-PCR). Evidence of apoptosis was measured by Tunel staining and immunohistochemistry (Pathology Research Program, University Health Network, Toronto, Canada).
Changes in ROS production are indicative of a biological response to ivermectin, but are very difficult to measure in the context of a clinical trial. Therefore, to identify alterations in gene expression that are a result of ROS production and could be used as biomarkers in the context of a clinical trial, gene expression profiling analysis (using Affymetrix HG U133 Plus 2.0 arrays) RNA derived from OCI-AML2 cells treated with ivermectin for 30 hr and 40 hr was undertaken. One hundred and fifty genes were deregulated >4-fold at both time points (33 under-expressed; 117 over-expressed) compared to control. […] Changes in STAT1 expression in tumors from a leukemia xenograft model were also evaluated. […] After treatment, tumors were harvested, mRNA extracted, and STAT1 expression measured by Q-RT PCR.

[8] = cited from earlier work
[9] = tested on: DU145 and PPC-1 cells; normal hematopoietic cells; assay: Reactive oxygen species, Carboxy-H2DCFDA staining, resistant cells; type: cell-based, human
[10] = tested on: dogs; conditions: oral; cited from earlier work
[11] = cited from earlier work; remark: listed apart in the source
[12] = healthy male volunteers, 14 mg capsule of radiolabelled ivermectin
[13] = onchocerciasis patients, single oral dose of 150 μg/kg

ivermectin
chloride influx [1]: chloride influx was not observed | sensitivity to IVM induced cell death [2]: more resistant to IVM induced cell death | induction of cell death [3]: did not induce cell death | EC50 [4]: ~5 µM | intracellular chloride, SPQ fluorescence ([5]; 10 μM IVM, 2 hours): decreased SPQ fluorescence | cell size ([5]; 2 hours of treatment, flow cytometry): caused an increase in cell size | STAT1 expression [6]: did not show changes in STAT1 expression | apoptosis in the subcutaneous tumor, Tunel staining ([7]; 7 mg/kg intraperitoneally for 5 days): increased apoptosis | STAT1 mRNA in tumors vs vehicle control ([7]; ivermectin for 5 days, Q-RT PCR): increased in two of three tested tumors | adverse effects ([8]; healthy volunteers, oral, dose of 120 (~2 mg/kg)): no serious adverse effects were noted | adverse effects ([8]; patients with spinal injury, up to 1.6 mg/kg subcutaneously twice weekly for up to 12 weeks): no significant adverse effects were reported | ROS generation ([9]; DU145 and PPC-1 cells): did not show changes in ROS generation | ROS generation ([9]; normal hematopoietic cells): not normal hematopoietic cells | LD50 [10]: ~80 mg/kg | time over which IVM and/or metabolites are excreted in the feces ([11]; estimated): ~12 days | half-life [11, 12]: 11.8 h | mean Tmax [11, 12]: 6 h | administered dose excreted in the urine ([11]; in vivo): < 1% | area under the curve over 48 hours [11, 13]: 2852 ng·h/mL | maximum plasma concentration [11, 13]: 52.0 ng/mL | time to maximum plasma concentration [11, 13]: 5.2 h
